Molecular target: T1, Carnitine monooxygenase oxygenase/reductase subunit (Escherichia coli (strain K12), UniProt P0ABR7+P76254)
T1 sequence (P0ABR7 whole entry): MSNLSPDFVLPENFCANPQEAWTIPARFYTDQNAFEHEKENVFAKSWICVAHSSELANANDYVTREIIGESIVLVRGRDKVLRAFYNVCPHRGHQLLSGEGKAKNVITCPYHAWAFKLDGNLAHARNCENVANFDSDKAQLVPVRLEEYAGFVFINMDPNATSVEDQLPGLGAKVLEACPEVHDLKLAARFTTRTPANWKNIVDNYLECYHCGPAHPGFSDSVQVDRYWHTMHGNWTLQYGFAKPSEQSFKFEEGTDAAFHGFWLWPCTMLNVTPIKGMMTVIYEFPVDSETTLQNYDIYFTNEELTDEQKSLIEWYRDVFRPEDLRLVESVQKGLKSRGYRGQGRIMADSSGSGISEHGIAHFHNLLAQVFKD
T1 sequence (P76254 whole entry): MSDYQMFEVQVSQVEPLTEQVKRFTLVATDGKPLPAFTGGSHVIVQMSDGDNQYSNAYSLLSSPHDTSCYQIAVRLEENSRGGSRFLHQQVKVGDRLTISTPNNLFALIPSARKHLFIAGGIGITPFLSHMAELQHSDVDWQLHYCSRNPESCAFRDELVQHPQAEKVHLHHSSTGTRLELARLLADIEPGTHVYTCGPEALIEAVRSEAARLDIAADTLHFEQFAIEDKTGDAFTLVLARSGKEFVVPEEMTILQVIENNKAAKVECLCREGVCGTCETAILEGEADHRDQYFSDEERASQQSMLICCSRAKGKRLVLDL
Test: BCA Protein Assay
Text: Escherichia coli BL21*DE3 pET30a-Ec yeaWX #1 (Ec YeaWX) strain was generated as described below. The contiguous Escherichia coli coding sequence yeaW (equivalent to uniprot ID P0ABR7.1 (YeaW) (SEQ ID NO: 2)) and yeaX (equivalent to uniprot ID P76254.1 (YeaX) (SEQ ID NO: 3)) were PCR amplified from Escherichia coli strain K-12 substr. BW25113 genomic DNA. PCR primers (YeaW_Nde I_fwd2-SEQ ID NO: 4; YeaX_rev2-SEQ ID NO: 5) were designed to create a 5′ NdeI restriction site including the ATG start codon of yeaW and create a PstI restriction site just 3′ of the yeaX TAG stop codon.The bacteria were grown aerobically in 50 mL LB broth (Difco #244620; 10 g/L Tryptone, 5 g/L yeast extract, 10 g/L NaCl, 50 μg/mL kanamycin), in a 500 mL Erlenmeyer flask. The cultures were inoculated from glycerol stock of BL21*DE3 pET30a-Ec yeaWX #1 strain. Strains were cultured all day at 37° C. with 250 rpm shaking. Two 300 mL Minimal M9 Medium (6 g/L Na2HPO4, 3 g/L KH2PO4, 0.5 g/L NaCl, 1 g/L NH4Cl, 0.1 mM CaCl2, 1 mM MgSO4, 0.2% Dextrose, 1 mg/L Thiamine, 50 μg/mL kanamycin), in 1 L Erlenmeyer flasks, were inoculated with 5 mL of the LB broth day culture and cultured overnight at 37° C. with 250 rpm shaking. The overnight cultures were used to inoculate twelve 1 L cultures of Minimal M9 media in 2.8 L fluted Erlenmeyer flasks to an OD 600 nm of 0.05 (typically approximately 28 mLs), which were grown at 37° C. with 250 rpm shaking until an OD600 of approximately 0.4 was reached. Expression of YeaWX was induced with 1 mM IPTG and the induced cultures were further grown overnight at 37° C. with 250 rpm shaking. The biomass was pelleted by centrifugation at 6000×g for 12 minutes at 4° C. The cell pellet was suspended in 240 mL of ice-cold 1× Phosphate Buffered Saline (Ca2+ and Mg2+ free). […] Glycerol was added to the centrifuged lysate supernatant at a final concentration of 15% A protein concentration of the centrifuged lysate supernatant was determined by a BCA Protein Assay Kit (Pierce #23225), typically in the 2.5 to 4.5 mg/ml range. […]

**Q.** Which IC50 does the source give for `CCOC(=O)C[N+](CC)(CC)CCCN=C=S` [US10213407, ID 3] here?
**A.** 220 µM

**Q.** How did the IC50 turn out when `CCOC(=O)C[N+](C)(C)CCN=C=S` [US10213407, ID 4] was run?
**A.** 300 µM

**Q.** `C[N+](C)(CC#N)CCN=C=S` [US10213407, ID 8] was tested. Which IC50 did it give?
**A.** 210 µM
